# Results as given in US11117900B2 (Vertex Pharmaceuticals Incorporated, priority 2012, dated 2021).
# Tested on: HCT116 colorectal cancer cells
# Experiment: Cisplatin sensitization assay (96 h MTS cell viability);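 further: compound concentration needed to lower the IC50 of Cisplatin alone by a set fold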
# Format: cell-based
# Conditions: Cisplatin sensitization value
# In short: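 HCT116 cells were dosed simultaneously with compound and cisplatin as a full matrix of 2-fold serial dilutions from 10 μM top final concentration. Incubation was 96 h at 37° C., 5% CO2, followed by 1 h with MTS reagent for the viability read-out. Sensitization values were binned into +++, ++ and + categories.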
row,Structure (SMILES),Cisplatin Sensitization Assay
1,"CN1CCN(C2CCN(c3ccncc3NC(=O)c3c(N)nn4cc(Cl)cnc34)CC2)CC1 [I-N-97, 2-amino-6-chloro-N-(4-(4-(4-methylpiperazin-1-yl)piperidin-1-yl)pyridin-3-yl)pyrazolo[1,5-a]pyrimidine-3-carboxamide]",+++ (Compounds with a Cisplatin sensitization value of <0.02 μM are marked with “+++.”)
2,"Nc1nn2cc(Cl)cnc2c1C(=O)Nc1cnccc1OCCN1CCOCC1 [I-O-60, 2-amino-6-chloro-N-(4-(2-morpholinoethoxy)pyridin-3-yl)pyrazolo[1,5-a]pyrimidine-3-carboxamide]",++ (Compounds with a Cisplatin sensitization value >0.02 μM but <0.2 μM are marked with “++.”)
3,"CN1CCN(C(=O)N2CCC(c3ccncc3NC(=O)c3c(N)nn4cc(F)cnc34)CC2)CC1 [I-C-17, 2-amino-6-fluoro-N-(4-(1-(4-methylpiperazine-1-carbonyl)piperidin-4-yl)pyridin-3-yl)pyrazolo[1,5-a]pyrimidine-3-carboxamide]",++ (Compounds with a Cisplatin sensitization value >0.02 μM but <0.2 μM are marked with “++.”)
4,"Nc1nn2cc(F)cnc2c1C(=O)Nc1cncc(F)c1N1CCC(C(=O)N2CCN3CCC2C3)CC1 (centres unmarked) [I-G-46, N-(4-(4-(1,4-diazabicyclo[3.2.1]octane-4-carbonyl)piperidin-1-yl)-5-fluoropyridin-3-yl)-2-amino-6-fluoropyrazolo[1,5-a]pyrimidine-3-carboxamide]",+++ (Compounds with a Cisplatin sensitization value of <0.02 μM are marked with “+++.”)
5,"Nc1nn2cc(Cl)cnc2c1C(=O)Nc1cnccc1N1CCN2CCC[C@@H]2C1 [I-N-65, (R)-2-amino-6-chloro-N-(4-(hexahydropyrrolo[1,2-a]pyrazin-2(1H)-yl)pyridin-3-yl)pyrazolo[1,5-a]pyrimidine-3-carboxamide]",+ (Compounds with a Cisplatin sensitization value >0.2 μM but <5 μM are marked with “+.”)
6,"Nc1nn2cc(F)cnc2c1C(=O)Nc1cnccc1N1CCN(C2CCOC2)CC1 (racemic) [I-N-19, (R,S)-2-amino-6-fluoro-N-(4-(4-(tetrahydrofuran-3-yl)piperazin-1-yl)pyridin-3-yl)pyrazolo[1,5-a]pyrimidine-3-carboxamide]",+++ (Compounds with a Cisplatin sensitization value of <0.02 μM are marked with “+++.”)
7,"Nc1nn2cc(F)cnc2c1C(=O)Nc1cnccc1N1CCN2CCC[C@H]2C1 [I-N-21, (S)-2-amino-6-fluoro-N-(4-(hexahydropyrrolo[1,2-a]pyrazin-2(1H)-yl)pyridin-3-yl)pyrazolo[1,5-a]pyrimidine-3-carboxamide]",+++ (Compounds with a Cisplatin sensitization value of <0.02 μM are marked with “+++.”)
8,"Cc1cnccc1-c1ccncc1NC(=O)c1c(N)nn2cc(F)cnc12 [I-C-29, 2-amino-6-fluoro-N-(3′-methyl-[4,4′-bipyridin]-3-yl)pyrazolo[1,5-a]pyrimidine-3-carboxamide]",+++ (Compounds with a Cisplatin sensitization value of <0.02 μM are marked with “+++.”)
9,"CS(=O)(=O)C1CCN(c2ccncc2NC(=O)c2c(N)nn3cc(F)cnc23)CC1 [I-N-190, 2-amino-6-fluoro-N-(4-(4-(methylsulfonyl)piperidin-1-yl)pyridin-3-yl)pyrazolo[1,5-a]pyrimidine-3-carboxamide]",+++ (Compounds with a Cisplatin sensitization value of <0.02 μM are marked with “+++.”)
10,"Nc1nn2cc(F)cnc2c1C(=O)Nc1cnccc1N1CCN2C(=O)COCC2C1 (centres unmarked) [I-N-136, 2-amino-6-fluoro-N-(4-(4-oxohexahydropyrazino[2,1-c][1,4]oxazin-8(1H)-yl)pyridin-3-yl)pyrazolo[1,5-a]pyrimidine-3-carboxamide]",++ (Compounds with a Cisplatin sensitization value >0.02 μM but <0.2 μM are marked with “++.”)
11,"CN1CCC(NC(=O)C2CCN(c3c(F)cncc3NC(=O)c3c(N)nn4cc(F)cnc34)CC2)C1 (centres unmarked) [I-G-24, 2-amino-6-fluoro-N-(5-fluoro-4-(4-((1-methylpyrrolidin-3-yl)carbamoyl)piperidin-1-yl)pyridin-3-yl)pyrazolo[1,5-a]pyrimidine-3-carboxamide]",+++ (Compounds with a Cisplatin sensitization value of <0.02 μM are marked with “+++.”)
12,"CN(C)CCOc1ccncc1NC(=O)c1c(N)nn2cc(Cl)cnc12 [I-O-48, 2-amino-6-chloro-N-(4-(2-(dimethylamino)ethoxy)pyridin-3-yl)pyrazolo[1,5-a]pyrimidine-3-carboxamide]",++ (Compounds with a Cisplatin sensitization value >0.02 μM but <0.2 μM are marked with “++.”)
13,"Nc1nn2cc(F)cnc2c1C(=O)Nc1cncc(Cl)c1N1CCN2CCN(C3COC3)CC2C1 (centres unmarked) [I-N-38, 2-amino-N-(5-chloro-4-(8-(oxetan-3-yl)hexahydro-1H-pyrazino[1,2-a]pyrazin-2(6H)-yl)pyridin-3-yl)-6-fluoropyrazolo[1,5-a]pyrimidine-3-carboxamide]",++ (Compounds with a Cisplatin sensitization value >0.02 μM but <0.2 μM are marked with “++.”)
14,"CN1C(=O)CCC12CCN(c1ccncc1NC(=O)c1c(N)nn3cc(F)cnc13)CC2 [I-N-235, 2-amino-6-fluoro-N-(4-(1-methyl-2-oxo-1,8-diazaspiro[4.5]decan-8-yl)pyridin-3-yl)pyrazolo[1,5-a]pyrimidine-3-carboxamide]",++ (Compounds with a Cisplatin sensitization value >0.02 μM but <0.2 μM are marked with “++.”)
15,"CN(C)C1CCN(c2ccncc2NC(=O)c2c(N)nn3cc(Cl)cnc23)CC1 [I-N-37, 2-amino-6-chloro-N-(4-(4-(dimethylamino)piperidin-1-yl)pyridin-3-yl)pyrazolo[1,5-a]pyrimidine-3-carboxamide]",++ (Compounds with a Cisplatin sensitization value >0.02 μM but <0.2 μM are marked with “++.”)
16,"Nc1nn2cc(F)cnc2c1C(=O)Nc1cnccc1N1CCN2CCC1CC2 [I-N-18, N-(4-(1,4-diazabicyclo[3.2.2]nonan-4-yl)pyridin-3-yl)-2-amino-6-fluoropyrazolo[1,5-a]pyrimidine-3-carboxamide]",++ (Compounds with a Cisplatin sensitization value >0.02 μM but <0.2 μM are marked with “++.”)
17,"COc1ccncc1NC(=O)c1c(N)nn2cc(F)cnc12 [I-O-4, 2-amino-6-fluoro-N-(4-methoxypyridin-3-yl)pyrazolo[1,5-a]pyrimidine-3-carboxamide]",++ (Compounds with a Cisplatin sensitization value >0.02 μM but <0.2 μM are marked with “++.”)
18,"CN(C)C(=O)C1CCN(c2ccncc2NC(=O)c2c(N)nn3cc(F)cnc23)CC1 [I-G-2, 2-amino-N-(4-(4-(dimethylcarbamoyl)piperidin-1-yl)pyridin-3-yl)-6-fluoropyrazolo[1,5-a]pyrimidine-3-carboxamide]",+++ (Compounds with a Cisplatin sensitization value of <0.02 μM are marked with “+++.”)
19,"Nc1nn2cc(Cl)cnc2c1C(=O)Nc1cnccc1OCCO [I-O-66, 2-amino-6-chloro-N-(4-(2-hydroxyethoxy)pyridin-3-yl)pyrazolo[1,5-a]pyrimidine-3-carboxamide]",+ (Compounds with a Cisplatin sensitization value >0.2 μM but <5 μM are marked with “+.”)
20,"Nc1nn2cc(F)cnc2c1C(=O)Nc1cncc(F)c1N1CCC(C(=O)N2CC3CNCC3C2)CC1 (centres unmarked) [I-G-51, 2-amino-6-fluoro-N-(5-fluoro-4-(4-(octahydropyrrolo[3,4-c]pyrrole-2-carbonyl)piperidin-1-yl)pyridin-3-yl)pyrazolo[1,5-a]pyrimidine-3-carboxamide]",+++ (Compounds with a Cisplatin sensitization value of <0.02 μM are marked with “+++.”)
21,"Nc1nn2cc(Cl)cnc2c1C(=O)Nc1cncc(F)c1N1CCN(C2COC2)CC1 [I-N-117, 2-amino-6-chloro-N-(5-fluoro-4-(4-(oxetan-3-yl)piperazin-1-yl)pyridin-3-yl)pyrazolo[1,5-a]pyrimidine-3-carboxamide]",+++ (Compounds with a Cisplatin sensitization value of <0.02 μM are marked with “+++.”)
22,"CN(C)CC1CCN(c2ccncc2NC(=O)c2c(N)nn3cc(F)cnc23)CC1 [I-N-267, 2-amino-N-(4-(4-((dimethylamino)methyl)piperidin-1-yl)pyridin-3-yl)-6-fluoropyrazolo[1,5-a]pyrimidine-3-carboxamide]",+++ (Compounds with a Cisplatin sensitization value of <0.02 μM are marked with “+++.”)
23,"Cc1nc(N2CCN(C)CC2)ccc1-c1ccncc1NC(=O)c1c(N)nn2cc(F)cnc12 [I-C-40, 2-amino-6-fluoro-N-(2-methyl-6-(4-methylpiperazin-1-yl)-[3,4′-bipyridin]-3′-yl)pyrazolo[1,5-a]pyrimidine-3-carboxamide]",+++ (Compounds with a Cisplatin sensitization value of <0.02 μM are marked with “+++.”)
24,Nc1nn2cc(F)cnc2c1C(=O)Nc1cncc(F)c1N1CCN(S(=O)(=O)C2COC2)CC1 [I-N-201],+++ (Compounds with a Cisplatin sensitization value of <0.02 μM are marked with “+++.”)
25,"Cc1nc(F)ccc1-c1ccncc1NC(=O)c1c(N)nn2cc(F)cnc12 [I-C-34, 2-amino-6-fluoro-N-(6-fluoro-2-methyl-[3,4′-bipyridin]-3′-yl)pyrazolo[1,5-a]pyrimidine-3-carboxamide]",+++ (Compounds with a Cisplatin sensitization value of <0.02 μM are marked with “+++.”)
26,"Nc1nn2cc(F)cnc2c1C(=O)Nc1cncc(C2CC2)c1N1CCN([C@H]2CCOC2)CC1 [I-N-120, (S)-2-amino-N-(5-cyclopropyl-4-(4-(tetrahydrofuran-3-yl)piperazin-1-yl)pyridin-3-yl)-6-fluoropyrazolo[1,5-a]pyrimidine-3-carboxamide]",+++ (Compounds with a Cisplatin sensitization value of <0.02 μM are marked with “+++.”)
